Laboratory results published in patent publication US6413607B1, “Cyanine dyes” (Kabushiki Kaisha Hayashibara Seibutsu Kagaku Kenkyujo, priority 1999, dated 2002).
Where two headings read alike, the source gives them in different places.

Key:
Type in all cases: physicochemical
[1] = Solubility of cyanine dye in TFP; conditions: in TFP at 20° C.
Protocol: For the cyanine dyes in Table 1, they were measured for solubility in TFP at 20° C.
When coating over the substrates for optical recording media, the cyanine dyes are generally prepared into 0.1-10 w/w % solutions.

[2] = Light characteristics: visible absorption spectrum in methanol and as thin layer over glass; conditions: for Maximum absorption (nm) CH3OH: dissolved in methanol; for Maximum absorption (nm) Thin Layer: formed into layer over glass; for Shift of absorption maximum compared with conventional related compounds: thin layer, in words
Protocol: The cyanine dyes as listed in Table 1 of the present invention and known compounds represented by Chemical Formulae 33 and 34 as controls were measured for visible absorption spectrum when dissolved in methanol and formed into layers over glasses.

[3] = Decomposition point by DTA and TGA; conditions: for Decomposability at temperatures around decomposition point / Rapidity of decomposition among Chemical Formulae 1, 4 and 6 to 8: in words; for Decomposition point (° C.): temperature increase 10° C./min
Source text: An adequate amount of either of the cyanine dyes in Table 1 as a test specimen was placed in a vessel and subjected to conventional differential thermal analysis (hereinafter abbreviated as “DTA”) and thermogravimetric analysis (hereinafter abbreviated as “TGA”) using “MODEL TG/DTA 220”, a digital thermo analyzer commercialized by Seiko Instruments Inc., Tokyo, Japan, to determine the melting point, i.e., a temperature at which the cyanine dyes as test specimens begin to absorb heat on […], and to determine the decomposition point, i.e., a temperature at which the cyanine dyes as test specimens begin to lose weight on […]. In parallel, conventional related compounds represented by Chemical Formulae 33 and 34 were analyzed similarly as above. FIGS. 2 and 3 are respectively the results of the cyanine dye represented by Chemical Formula 4 of the present invention and conventional related compound represented by Chemical Formula 34. In DTA and TGA, the environmental temperature was set to an increasing temperature mode at a rate of 10° C./min.
As evident from Table 1 and FIGS. 2 and 3, all the conventional related compounds had melting points and decomposition points which were different from each other, and very slowly decomposed at temperatures around their decomposition points. […] Most specifically, conventional known compounds had both melting points and decomposition points which were different from each other, i.e., the difference ranged from 17 to 108° C., while most of the cyanine dyes of the present invention had decomposition points which were undistinguishable from their melting points or had only the decomposition points.

[4] = Decomposition rate: differential calorimetric curve (DSC), half value width; conditions: for Calorific value / Decomposition initiating point / Decomposition peak point / Half value width: DSC, 10° C./min; for Calorific value / Decomposition initiating point / Decomposition peak point: nitrogen atmosphere; for Half value width: width of decomposition peak at half calorific value, nitrogen
Protocol: For the cyanine dyes represented by Chemical Formulae 4, 6 and 8 of the present invention, they were in a usual manner examined for differential calorimetric curve when heated under an increasing temperature rate of 10° C./min and nitrogen atmospheric conditions using “MODEL DSC220U”, a digital thermo analyzer commercialized by Seiko Instruments Inc., Tokyo, Japan. In parallel, conventional cyanine dye represented by Chemical Formula 33 was examined for differential calorimetric curve similarly as above. FIGS. 4 and 5 are respectively differential calorimetric curves for the cyanine dyes represented by Chemical Formulae 4 and 33.
Based on the results of the differential calorimetric curves, the half calorific vallues at descomposition peaks for each cyanine dyes were determined, and the thermal difference between the two points, having the determined half calorific values at both ends of each descomposition peaks (hereinafter designated as “a half value width”), was determined.
As evident from the results in Table 2 and FIGS. 4 and 5, the cyanine dyes of the present invention instantly and promptly decomposed in spite of their substantially the same calorific-values as compared with conventional one. […] Similarly as in conventional related compounds represented by Formulae 33 and 34, dyes with a relatively-slow decomposition rate are substantially difficult to form stable minute pits at a relatively-high density on a restricted recording surface of high-density optical recording media such as DVD-Rs, as mentioned above. Varying depending on glass transition temperature of substrate, when used as a light absorbent in optical recording media, dyes with a lower decomposition point can be generally used to write information by using a lower-power laser beam as a merit, however, as a demerit, when exposed to laser beam for a relatively-long period of time on reading, the dyes tend to accumulate heat and deform parts around pits and other parts free of pit on recording surfaces, resulting in large jitters and reading errors. The cyanine dyes of the present invention substantially absorb a visible light with a wavelength around 650 nm when formed into a thin layer, have decomposition points which are undistinguishable from their melting points or only have the decomposition points of relatively-high temperatures, and have an outstandingly-high decomposition rate at around the decomposition points. These characteristics mean that high-density optical recording media, having a relatively-small jitter, insubstantial reading error, and satisfactory stability of exposure to environmental light such as reading light and natural light, can be obtained by using the cyanine dyes of the present invention as light absorbents. The reason of why the half value width was employed as an index for the decomposability in this example was due to the fact that it can effectively evaluate the decomposition rate of test specimens.

Structure (SMILES) | Maximum absorption (nm) CH3OH [2] | Maximum absorption (nm) Thin Layer [2] | Rapidity of decomposition among Chemical Formulae 1, 4 and 6 to 8 [3] | Solubility [1] | Decomposition point (° C.) [3] | Calorific value [4] | Decomposition initiating point [4] | Decomposition peak point [4] | Half value width as level of that of conventional cyanine dye ([4]; relative to Chemical Formula 33) | Half value width [4] | Solubility ([1]; organic solvent or mixture, read-out: Solubility) | Shift of absorption maximum compared with conventional related compounds [2] | Decomposability at temperatures around decomposition point [3]
CN1C(=CC=CC2=[N+](C)c3ccc([N+](=O)[O-])cc3C2(C)C)C(C)(C)c2c1ccc1ccccc21 [Chemical Formula 1] | 573 nm | 609 nm | decomposed most rapidly |  |  |  |  |  |  |  | 36 mg/mL | shifted their absorption maxima to longer wavelengths by a large margin | instantly decomposed at once
CCCCN1C(=CC=CC2=[N+](C)c3ccc([N+](=O)[O-])cc3C2(C)C)C(C)(C)c2c1ccc1ccccc21.CCN(CC)c1ccc2c(c1)[O][Co-]1([O]c3ccc([N+](=O)[O-])cc3N=N2)[O]c2ccc([N+](=O)[O-])cc2N=Nc2ccc(N(CC)CC)cc2[O]1 [Chemical Formula 3] | 540 nm | 557 nm |  | 22 mg/mL | 271.3 °C |  |  |  |  |  |  |  | 
CCN1C(=CC=CC2=[N+](CC)c3ccc([N+](=O)[O-])cc3C2(C)C)C(C)(C)c2c1ccc1ccccc21.[O-][Cl+3]([O-])([O-])[O-] [Chemical Formula 4] | 576 nm | 609 nm | decomposed most rapidly | 126 mg/mL |  | 1826 mJ/mg | 295.8 °C | 298.6 °C | ⅙ | 7.7 °C |  | shifted their absorption maxima to longer wavelengths by a large margin | instantly decomposed at once
CCCN1C(=CC=CC2=[N+](CCC)c3ccc([N+](=O)[O-])cc3C2(C)C)C(C)(C)c2c1ccc1ccccc21.[O-][Cl+3]([O-])([O-])[O-] [Chemical Formula 6] | 578 nm | 609 nm | decomposed most rapidly | 164 mg/mL |  | 1827 mJ/mg | 279.5 °C | 285.5 °C |  | 13.2 °C |  | shifted their absorption maxima to longer wavelengths by a large margin | 
CCCCN1/C(=C/C=C/C2=[N+](CCCC)c3ccccc3C2(C)C)C(C)(C)c2c1ccc1ccccc21 [Chemical Formula 33, reference compound] | 568 nm | 600 nm |  |  | 268.1 °C | 1467 mJ/mg | 255.4 °C | 297.4 °C |  | 49.9 °C |  |  | 
CCCCN1/C(=C/C=C/C2=[N+](CCCC)c3ccc(C)cc3C2(C)C)C(C)(C)c2c1ccc1ccccc21 [Chemical Formula 34, reference compound] | 574 nm | 599 nm |  |  | 267 °C |  |  |  |  |  |  |  | 

Now from value to compound, other results behind:

Maximum absorption (nm) CH3OH [2] | Maximum absorption (nm) Thin Layer [2] | Rapidity of decomposition among Chemical Formulae 1, 4 and 6 to 8 [3] | Solubility [1] | Decomposition point (° C.) [3] | Calorific value [4] | Decomposition initiating point [4] | Decomposition peak point [4] | Half value width as level of that of conventional cyanine dye ([4]; relative to Chemical Formula 33) | Half value width [4] | Structure (SMILES) | Solubility ([1]; organic solvent or mixture, read-out: Solubility) | Shift of absorption maximum compared with conventional related compounds [2] | Decomposability at temperatures around decomposition point [3]
577 nm | 609 nm | decomposed most rapidly | 210 mg/mL | 261.2 °C |  |  |  |  |  | CCCCN1C(=CC=CC2=[N+](CCC)c3ccc([N+](=O)[O-])cc3C2(C)C)C(C)(C)c2c1ccc1ccccc21.[O-][Cl+3]([O-])([O-])[O-] [Chemical Formula 7] |  | shifted their absorption maxima to longer wavelengths by a large margin | 
577 nm | 609 nm |  | 245 mg/mL | 262.4 °C | 1663 mJ/mg | 249.9 °C | 273.5 °C |  | 32.2 °C | CCCCN1C(=CC=CC2=[N+](CCCC)c3ccc([N+](=O)[O-])cc3C2(C)C)C(C)(C)c2c1ccc1ccccc21.[O-][Cl+3]([O-])([O-])[O-] [Chemical Formula 8] |  | shifted their absorption maxima to longer wavelengths by a large margin | 
562 nm | 617 nm |  | 229 mg/mL | 270.7 °C |  |  |  |  |  | CCN1C(=CC=CC2=[N+](CC)c3ccc([N+](=O)[O-])cc3C2(C)C)C(C)(C)c2ccc3ccccc3c21.[O-][Cl+3]([O-])([O-])[O-] [Chemical Formula 15] |  | shifted their absorption maxima to longer wavelengths by a large margin | 
591 nm | 591 nm |  | >200 mg/mL | 273.5 °C |  |  |  |  |  | CCCCN1C(=CC=CC2=[N+](C)c3ccc(S(=O)(=O)N(CC)CC)cc3C2(C)C)C(C)(C)c2c1ccc1ccccc21.F[P-](F)(F)(F)(F)F [Chemical Formula 23] |  |  | 
538 nm | 556 nm |  | 197 mg/mL |  |  |  |  |  |  | CCCCN1C(=CC=CC2=[N+](C)c3ccc(S(=O)(=O)N(CC)CC)cc3C2(C)C)C(C)(C)c2c1ccc1ccccc21.CCN(CC)c1ccc2c(c1)[O][Co-]1([O]c3ccc([N+](=O)[O-])cc3N=N2)[O]c2ccc([N+](=O)[O-])cc2N=Nc2ccc(N(CC)CC)cc2[O]1 [Chemical Formula 24] |  |  | 
570 nm | 594 nm |  | 127 mg/mL | 257.3 °C |  |  |  |  |  | CCCCN1C(=CC=CC2=[N+](C)c3ccc(S(=O)(=O)N(CC)CC)cc3C2(C)C)C(C)(C)c2c1ccc1ccccc21.O=[N+]([O-])c1ccc2c(c1)N=Nc1c(ccc3ccccc13)[O][Ni-]1([O]2)[O]c2ccc([N+](=O)[O-])cc2N=Nc2c(ccc3ccccc23)[O]1 [Chemical Formula 26] |  |  | 
571 nm | 592 nm |  | >200 mg/mL |  |  |  |  |  |  | CCN1C(=CC=CC2=[N+](CC)c3ccc(S(=O)(=O)N(CC)CC)cc3C2(C)C)C(C)(C)c2c1ccc1ccccc21.[O-][Cl+3]([O-])([O-])[O-] [Chemical Formula 27] |  |  | 
